Measurements published in patent EP4775208A1, “USE OF PRMT5 INHIBITOR IN TREATMENT OF TUMORS OR CANCERS” (Apeiron Therapeutics (Hong Kong) Ltd., priority 2023, dated 2025).

Key:
LN18 MTAP(-/-) cells = test: Inhibition of proliferation of LN18 MTAP(-/-) cells (CellTiter-Glo); format: cell-based; settings: Homo sapiens, LN-18, 168 h, cell proliferation, 7 days
Description: Test 5: Assay for Inhibitory Activity of Compounds against LN18 MTAP(-/-) Cell Proliferation
Materials and Cells: The LN18 MTAP(-/-) cell line was provided by Cobioer Biosciences (China). Cell culture media, fetal bovine serum (FBS), and penicillin-streptomycin were purchased from Thermo Fisher Scientific (USA). 384-well plates were purchased from PerkinElmer (USA). The CellTiter-Glo assay kit was purchased from Promega (USA).
Cell Culture: LN18 MTAP(-/-) cells were cultured in a medium supplemented with 10% fetal bovine serum (FBS) and 1% penicillin-streptomycin at 37°C with 5% CO2. Only cells in the logarithmic growth phase were used for experiments.
(§1) Cell Proliferation Inhibition Assay: The antiproliferative activity of the compounds against LN18 MTAP(-/-) cells was assessed using the CellTiter-Glo assay kit. Cell suspensions were adjusted to the appropriate density and seeded into 384-well plates at a volume of 40 µL per well, then incubated overnight at 37°C with 5% CO2. Compounds (40 nL) were added to each well to achieve final concentrations ranging from 0 to 1,000 nM (starting concentration 1,000 nM, 3-fold serial dilutions, 9 dose points), with a final DMSO concentration of […]. The cell plates were incubated at 37°C with 5% CO2 for 7 days. Subsequently, 40 µL of CellTiter-Glo reagent was added to measure cell viability.

[1] = test system: LN18 MTAP-overexpressing cells; test: Inhibition of proliferation of LN18 MTAP-overexpressing cells (CellTiter-Glo); format: cell-based; settings: Homo sapiens, LN-18, 168 h, cell proliferation, 7 days
Description: Test 6: Assay for Inhibitory Activity of Compounds against LN18 MTAP-Overexpressing Cell Proliferatio
Materials and Cells: The LN18 MTAP-overexpressing cell line was purchased from Cobioer Biosciences (China). Cell culture media, fetal bovine serum (FBS), and penicillin-streptomycin were purchased from Thermo Fisher Scientific (USA). 384-well plates were purchased from PerkinElmer (USA). The CellTiter-Glo assay kit was purchased from Promega (USA).
Cell Culture: LN18 MTAP-overexpressing cells were cultured in a medium supplemented with 10% fetal bovine serum (FBS) and 1% penicillin-streptomycin at 37°C with 5% CO2. Only cells in the logarithmic growth phase were used for experiments.
as §1, with “MTAP-overexpressing” for “MTAP(-/-)”, “10,000” for “1,000”

U87MG MTAP(-/-) cells = test: Inhibition of proliferation of U87MG MTAP(-/-) cells (CellTiter-Glo); format: cell-based; settings: cell proliferation, 6 days
Description: Test 7: Assay for Inhibitory Activity of Compounds against U87MG MTAP(-/-) Cell Proliferation
Materials and Cells: The U87MG MTAP(-/-) cell line was purchased from ATCC (USA). Cell culture media, fetal bovine serum (FBS), and penicillin-streptomycin were purchased from Thermo Fisher Scientific (USA). 384-well plates were purchased from PerkinElmer (USA). The CellTiter-Glo assay kit was purchased from Promega (USA).
Cell Culture: U87MG MTAP(-/-) cells were cultured in a medium supplemented with 10% fetal bovine serum (FBS) and 1% penicillin-streptomycin at 37°C with 5% CO2. Only cells in the logarithmic growth phase were used for experiments.
Cell Proliferation Inhibition Assay: The antiproliferative activity of the compounds against U87MG MTAP(-/-) cells was assessed using the CellTiter-Glo assay kit. Cell suspensions were adjusted to the appropriate density and seeded into 384-well plates at a volume of 40 µL per well, then incubated overnight at 37°C with 5% CO2. Compounds (40 nL) were added to each well to achieve final concentrations ranging from 0 to 10,000 nM (starting concentration 10,000 nM, 3-fold serial dilutions, 10 dose points), with a final DMSO concentration of […]. The cell plates were incubated at 37°C with 5% CO2 for 6 days. Subsequently, 40 µL of CellTiter-Glo reagent was added to measure cell viability. Paclitaxel was used as a control compound.

[2] = test system: HCT-116 MTAP wild-type cells; test: Inhibition of proliferation of HCT-116 MTAP wild-type cells (Cell-Titer Glo); format: cell-based; settings: 8 days
Procedure, shortened: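 MTAP wild-type HCT-116 cells were seeded, cultured overnight and then exposed to compound from 10,000 nM down in a 10-point, 3-fold series (0.1% DMSO). Plates were incubated 8 days at 37°C, 5% CO2. Proliferation was read by Cell-Titer Glo viability luminescence.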

[3] = test system: HCT-116 MTAP(-/-) deficient cells; test: Inhibition of proliferation of HCT-116 MTAP(-/-) deficient cells (Cell-Titer Glo); format: cell-based; settings: 8 days
Procedure, shortened: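 Cells in log-phase growth, RPMI-1640 with 10% FBS, seeded and left overnight at 37°C, 5% CO2. Compound tested at 0–10,000 nM (10 points, 3-fold, 0.1% DMSO) for 8 days at 37°C, 5% CO2. Viability read by CellTiter-Glo luminescence.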

[4] = Mouse pharmacokinetic experiment (IV and PO, plasma); format: in vivo, ICR male mice; settings: male, mouse, plasma; ICR mice, PO(10mg/kg) vs IV(3mg/kg); read-out: Bioavailability F (%)
Description: II. Mouse Pharmacokinetic Experiment
The compounds used in this experiment are specific embodiments of the present invention, with reference to compound AMG473 as an example from Amgen's patent WO 2022/169948A1, identified as example 473.
ICR male mice, N=3/group; sourced from Zhejiang Vital River Laboratory Animal Technology Co., Ltd.
3. Drug Preparation and Administration
Single oral (PO) administration to ICR mice: Compounds were dissolved in dimethyl sulfoxide, added to polyethylene glycol 400 and sterile water, and then adjusted to a clear solution with a small amount of 1 mol/L hydrochloric acid. After overnight fasting, the mice were orally gavaged with a dose of 10 mg/kg. Single intravenous (IV) administration to ICR mice: Compounds were dissolved in dimethyl sulfoxide, added to polyethylene glycol 400 and sterile water, and then adjusted to a clear solution with a small amount of 1 mol/L hydrochloric acid. After overnight fasting, the mice received tail vein injections with a dose of 3 mg/kg.
Approximately 30 µL/time point blood samples were collected via the tail vein. Potassium ethylenediaminetetraacetate was used as an anticoagulant, and samples were centrifuged at 4000 g/min for 5 minutes at 4°C within 1 hour. Blood sampling time points were 0.0833 (IV), 0.25, 0.5, 1, 2, 4, 6, 8, 24 hours. Samples were stored in a -20°C freezer.
Plasma samples (30µL, 10µL sample + 20µL blank plasma) were mixed with 200µL ice-cold acetonitrile containing internal standards. After vortexing for 30 seconds, samples were centrifuged at 4000g/min for 20 minutes. One hundred microliters of the supernatant were transferred to a 96-well plate, followed by the addition of 200µL ultrapure water. After vortexing for 30 seconds, 5µL or 10µL were injected into LC-MS/MS for analysis. Table 7: Pharmacokinetic Data

LU99 = test: Mini cell panel: inhibition of proliferation of LU99 cells; format: cell-based; settings: Homo sapiens, Lu-99, MTAP (-/-)
Description: (§2) Test 9: Mini Cell Panel: Assay for Inhibitory Activity of Compounds against Proliferation of 20 Tumor Cell Lines
(§3) Materials and Cells: Fifteen MTAP(-/-) cell lines and five MTAP wild-type cell lines were purchased from ATCC (USA). Cell culture media, fetal bovine serum (FBS), and penicillin-streptomycin were purchased from Thermo Fisher Scientific (USA). 384-well plates were purchased from PerkinElmer (USA). The CellTiter-Glo assay kit was purchased from Promega (USA). Paclitaxel was used as the control compound.

SU-DHL-4 = test: Mini cell panel: inhibition of proliferation of SU-DHL-4 cells; format: cell-based; settings: Homo sapiens, SU-DHL-4, MTAP Wild type
Description: as §2, §3

LN-18 = test: Mini cell panel: inhibition of proliferation of LN-18 cells; format: cell-based; settings: Homo sapiens, LN-18, MTAP (-/-)
Description: as §2, §3

ACHN = test: Mini cell panel: inhibition of proliferation of ACHN cells; format: cell-based; settings: Homo sapiens, ACHN, MTAP (-/-)
Description: as §2, §3

SU-DHL-10 = test: Mini cell panel: inhibition of proliferation of SU-DHL-10 cells; format: cell-based; settings: Homo sapiens, SU-DHL10, MTAP Wild type
Description: as §2, §3

NCI-H647 = test: Mini cell panel: inhibition of proliferation of NCI-H647 cells; format: cell-based; settings: Homo sapiens, NCI-H647, MTAP (-/-)
Description: as §2, §3

U87MG = test: Mini cell panel: inhibition of proliferation of U87MG cells; format: cell-based; settings: Homo sapiens, U-87 MG, MTAP (-/-)
Description: as §2, §3

A549 = test: Mini cell panel: inhibition of proliferation of A549 cells; format: cell-based; settings: Homo sapiens, A549, MTAP (-/-)
Description: as §2, §3

BxPc-3 = test: Mini cell panel: inhibition of proliferation of BxPc-3 cells; format: cell-based; settings: Homo sapiens, BXPC-3, MTAP (-/-)
Description: as §2, §3

SW780 = test: Mini cell panel: inhibition of proliferation of SW780 cells; format: cell-based; settings: Homo sapiens, SW780, MTAP (-/-)
Description: as §2, §3

SW1573 = test: Mini cell panel: inhibition of proliferation of SW1573 cells; format: cell-based; settings: Homo sapiens, SW1573, MTAP (-/-)
Description: as §2, §3

MKN-45 = test: Mini cell panel: inhibition of proliferation of MKN-45 cells; format: cell-based; settings: Homo sapiens, MKN-45, MTAP (-/-)
Description: as §2, §3

DOHH-2 = test: Mini cell panel: inhibition of proliferation of DOHH-2 cells; format: cell-based; settings: Homo sapiens, DOHH-2, MTAP (-/-)
Description: as §2, §3

CFPAC-1 = test: Mini cell panel: inhibition of proliferation of CFPAC-1 cells; format: cell-based; settings: Homo sapiens, CFPAC-1, MTAP Wild type
Description: as §2, §3

Aspc-1 = test: Mini cell panel: inhibition of proliferation of Aspc-1 cells; format: cell-based; settings: Homo sapiens, ASPC1, MTAP Wild type
Description: as §2, §3

PSN-1 = test: Mini cell panel: inhibition of proliferation of PSN-1 cells; format: cell-based; settings: Homo sapiens, PSN1, MTAP (-/-)
Description: as §2, §3

MDA-MB-231 = test: Mini cell panel: inhibition of proliferation of MDA-MB-231 cells; format: cell-based; settings: Homo sapiens, MDA-MB-231, MTAP (-/-)
Description: as §2, §3

Calu-1 = test: Mini cell panel: inhibition of proliferation of Calu-1 cells; format: cell-based; settings: Homo sapiens, Calu-1, MTAP Wild type
Description: as §2, §3

SK-MEL-5 = test: Mini cell panel: inhibition of proliferation of SK-MEL-5 cells; format: cell-based; settings: Homo sapiens, MTAP (-/-)
Description: as §2, §3

CN(C(=O)c1cc2c(cc1C#N)nc(N)c1cncn12)[C@@H]1COc2cc(C(F)(F)F)ccc21 [Example 14, (S)-4-amino-7-cyano-N-methyl-N-(6-(trifluoromethyl)-2,3-dihydrobenzofuran-3-yl)imi dazo[1,5-a]quinoxaline-8-carboxamide]
IC50 (LN18 MTAP(-/-) cells): 5.56 nM | IC50 [1]: 898 nM | IC50 (U87MG MTAP(-/-) cells; Homo sapiens, U-87 MG, 144 h): 79.5 nM

CN(C(=O)c1ccc2nc(N)c3cncn3c2c1)[C@@H]1COc2cc(C(F)(F)C(F)(F)F)ccc21 [Example 130, (S)-4-amino-N-methy 1-N-(6-(perfluoroethyl)-2,3-dihydrobenzofuran-3-yl)imidazo[1,5-a]quinoxaline-8-carbox amide]
IC50 ([2]; Homo sapiens, HCT-116, 192 h): 1290 nM | IC50 ([3]; Homo sapiens, HCT-116, 192 h): 5.8 nM | bioavailability [4]: 77.5%

CC(=O)O[C@H]1C(=O)[C@@]2(C)[C@H]([C@H](OC(=O)c3ccccc3)[C@]3(O)C[C@H](OC(=O)[C@H](O)[C@@H](NC(=O)c4ccccc4)c4ccccc4)C(C)=C1C3(C)C)[C@]1(OC(C)=O)CO[C@@H]1C[C@@H]2O [Paclitaxel, reference compound]
IC50 (LU99): 1.5 nM | IC50 (SU-DHL-4): 1.9 nM | IC50 (LN-18): 20.6 nM | IC50 (ACHN): 4.1 nM | IC50 (SU-DHL-10): 2.8 nM | IC50 (NCI-H647): 1.4 nM | IC50 (U87MG): 5.2 nM | IC50 (A549): 1.9 nM | IC50 (BxPc-3): 0.9 nM | IC50 (SW780): 1.6 nM | IC50 (SW1573): 2.5 nM | IC50 (MKN-45): 1.8 nM | IC50 (DOHH-2): 3.4 nM | IC50 (U87MG MTAP(-/-) cells; Homo sapiens, U-87 MG, 144 h): 5.55 nM | IC50 (CFPAC-1): 1.1 nM | IC50 (Aspc-1): 3.4 nM | IC50 (PSN-1): 2.9 nM | IC50 (MDA-MB-231): 2.5 nM | IC50 (Calu-1): 9.8 nM | IC50 (SK-MEL-5): 7.8 nM

(S)-4-amino-N-methyl-N-(6-(trifluoromethyl)-2,3-dihydrobenzofuran-3-yl)imidazo[1,5-a]quinoxaline-8-carboxamide-1-d [Example 78]
IC50 (U87MG MTAP(-/-) cells): 211 nM | IC50 [2]: 2070 nM | IC50 [3]: 7.1 nM
